Test results taken from patent publication US12729377B2, “RNAi agents and compositions for inhibiting expression of angiopoietin-like 3 (ANGPTL3), and methods of use” (Arrowhead Pharmaceuticals, Inc., priority 2017, dated 2026).
In the oligonucleotide strings, read from the 5' end, every base follows the letter of its sugar. An asterisk marks phosphorothioate; unmarked linkages are phosphodiester. Other units and linkages are bracketed, terminal groups are in braces. A string of capitals states the bases alone. {NAG37} = tridentate N-acetyl-galactosamine targeting ligand, structure (NAG37)s; [invAb] = inverted abasic unit; m = 2'-O-methyl; f = 2'-fluoro

Legend:
[1] = tested on: ANGPTL3 gene; assay: Example 10: serum triglycerides in mice; type: in vivo; details: 0.5 mg/kg single SC injection day 1, female C57bl/6 mice, n=3, ratio to D5W control
Protocol: To assess the in vivo activity of further ANGPTL3 RNAi agents that are designed to target position 304 on the ANGPTL3 gene, six- to eight-week-old female C57bl/6 mice were used. Pre-dose serum samples were taken at day −1 after a four hour fast. At day 1, each mouse was given a single subcutaneous administration of 200 μl containing 0.5 mg/kg (mpk) of an ANGPTL3 RNAi agent in D5W (dextrose in 5% water), or control (D5W) with no RNAi agent, according to the dosing groups recited in Table 47.
Each of the RNAi agents included a modified sequence and an N-acetyl-galactosamine-containing targeting ligand conjugated to the 5′ terminal end of the sense strand. (See Tables 3, 4, and 5 for modified sequences and targeting ligand structures). As noted above, each of the ANGPTL3 RNAi agents dosed in this study included nucleotide sequences designed to target the ANGPTL3 gene at position 304. The injections were performed between the skin and muscle (i.e. subcutaneous injections) into the loose skin over the neck and shoulder area. Three (3) mice in each group were tested (n=3). Serum was collected on days 8, 15, 22, 29, and for some groups on day 36 (i.e., Groups 1, 2, and 9-13 only). Mice were fasted for four hours prior to each collection. ANGPTL3 protein levels in serum were measured by ELISA assay (R&D Systems), according to the manufacturer's recommendations. Triglycerides, total cholesterol, high-density lipoprotein (HDL), and low-density lipoprotein (LDL) in serum were measured on a Cobas® Integra 400 (Roche Diagnostics), according to the manufacturer's recommendations.
The ANGPTL3 protein levels, triglyceride levels, total cholesterol levels, HDL levels, and LDL levels for each animal were normalized. For normalization, the level of ANGPTL3 protein, triglyceride, HDL, and total cholesterol, respectively, for each animal at a time point, was divided by the pre-treatment level of expression in that animal (in this case at day −1) to determine the ratio of expression “normalized to pre-treatment.” Expression at a specific time point was then normalized to the D5W control group by dividing the “normalized to pre-treatment” ratio for an individual animal by the mean “normalized to pretreatment” ratio of all mice in the D5W control group.

[2] = tested on: ANGPTL3 gene; assay: Example 14: RNAi agent and statin, serum total cholesterol in LDLR knockout mice; type: in vivo, LDLR KO mice
Description: To evaluate the effect of co-administration of RNAi agents and statins in a disease model, LDLR KO mice were commercially obtained (The Jackson Laboratory). For three weeks prior to the onset of the study, forty-one (41) male 7 to 8 week old LDLR KO mice were placed on a high fat (“western”) diet (Teklad Custom Diets TD.88137), and remained on that diet throughout the duration of the study. Pre-dose serum samples were taken on study Day 1 after a four hour fast. The dosing regimen for the study is recited in the following Table 72:
• Mice were treated at 40 mg/kg for the first 11 days, then switched to 20 mg/kg thereafter.
The vehicle used for the oral gavage in the study was a 1:1 mixture of Ora-Plus®: Ora-Sweet® solution, which were acquired commercially. For the preparation of the atorvastatin oral gavage administrations, the respective desired dose of atorvastatin was first dissolved in sterile water (0.3 mL water per 1 mL of desired formulation) and vortexed until smooth, followed by the addition of a mixture of 1:1 Ora-Plus®: Ora-Sweet® solution (0.7 mL vehicle per 1 mL of desired formulation) and vortexed. On day 1 and for each day thereafter an oral gavage dose was administered for each of the Groups except for Group 2. On Day 23, Groups 1, 2, 3, and 4 received a single subcutaneous administration of 2.5 mg/kg dose ([…] solution) of an ANGPTL3 RNAi agent in D5W (dextrose in 5% water), or vehicle control (D5W) with no RNAi agent.
The RNAi agent tested (AD05488) included a modified sequence and an N-acetyl-galactosamine-containing targeting ligand conjugated to the 5′ terminal end of the sense strand. (See Tables 3, 4, and 5 for modified sequences and targeting ligand structures). The injections were performed between the skin and muscle (i.e. subcutaneous injections) into the loose skin over the neck and shoulder area. Serum was collected on days 8, 15, 22 (pre-RNAi agent injection), 29, 36, 43, and 50. LDLR KO mice were fasted for four hours prior to each collection.
ANGPTL3 protein levels in serum were measured by ELISA assay (R&D Systems), according to the manufacturer's recommendations. Among other biomarkers, triglycerides, total cholesterol, and low-density lipoprotein (LDL) in serum were measured on a Cobas® Integra 400 (Roche Diagnostics), according to the manufacturer's recommendations.
The ANGPTL3 protein levels, triglyceride levels, total cholesterol levels, HDL levels, and LDL levels for each animal were normalized. For normalization, respective levels of ANGPTL3 protein, TG, total cholesterol, or LDL for each animal at a time point was divided by the pre-treatment level of expression in that animal (in this case pre-dose levels on Day 1) to determine the ratio of expression “normalized to pre-treatment.” Data from the study set forth in this Example are shown in the following Tables 73-76: […]

Substance: AD05488: RNAi agent duplex: antisense AM07235-AS, sense AM07234-SS (antisense mU*fA*mC*fUmGfAmUfCmAfAmAfUmAfUmGfUmUfGmAfG*mC; sense {NAG37}*[invAb]*mGmCmUmCmAmAmCmAfUfAfUmUmUmGmAmUmCmAmGmUmA*[invAb])
- Average Triglycerides Normalized to Pre-Treatmen and Control ([1]; Day 8): 0.646
- Average Triglycerides Normalized to Pre-Treatmen and Control ([1]; Day 15): 0.669
- Average Triglycerides Normalized to Pre-Treatmen and Control ([1]; Day 22): 0.723
- Average Triglycerides Normalized to Pre-Treatmen and Control ([1]; Day 29): 0.739
- Average Triglycerides Normalized to Pre-Treatmen and Control ([1]; Day 36): 0.843
- Avg Total Chol normalized to pre-treatment ([2]; Group 2: no gavage, 2.5 mg/kg AD05488 SC on day 23, Day 8 (pre-RNAi agent injection)): 0.962
- Avg Total Chol normalized to pre-treatment ([2]; Group 2: no gavage, 2.5 mg/kg AD05488 SC on day 23, Day 15 (pre-RNAi agent injection)): 1.122
- Avg Total Chol normalized to pre-treatment ([2]; Group 2: no gavage, 2.5 mg/kg AD05488 SC on day 23, Day 22 (pre-RNAi agent injection)): 1.261
- Avg Total Chol normalized to pre-treatment ([2]; Group 2: no gavage, 2.5 mg/kg AD05488 SC on day 23, Day 29): 0.645
- Avg Total Chol normalized to pre-treatment ([2]; Group 2: no gavage, 2.5 mg/kg AD05488 SC on day 23, Day 36): 0.518
- Avg Total Chol normalized to pre-treatment ([2]; Group 2: no gavage, 2.5 mg/kg AD05488 SC on day 23, Day 43): 0.512
- Avg Total Chol normalized to pre-treatment ([2]; Group 2: no gavage, 2.5 mg/kg AD05488 SC on day 23, Day 50): 0.515
- Avg Total Chol normalized to pre-treatment ([2]; Group 3: 10 mg/kg daily oral gavage atorvastatin, 2.5 mg/kg AD05488 on day 23, Day 8 (pre-RNAi agent injection)): 0.763
- Avg Total Chol normalized to pre-treatment ([2]; Group 3: 10 mg/kg daily oral gavage atorvastatin, 2.5 mg/kg AD05488 on day 23, Day 15 (pre-RNAi agent injection)): 0.620
- Avg Total Chol normalized to pre-treatment ([2]; Group 3: 10 mg/kg daily oral gavage atorvastatin, 2.5 mg/kg AD05488 on day 23, Day 22 (pre-RNAi agent injection)): 0.758
- Avg Total Chol normalized to pre-treatment ([2]; Group 3: 10 mg/kg daily oral gavage atorvastatin, 2.5 mg/kg AD05488 on day 23, Day 29): 0.444
- Avg Total Chol normalized to pre-treatment ([2]; Group 3: 10 mg/kg daily oral gavage atorvastatin, 2.5 mg/kg AD05488 on day 23, Day 36): 0.362
- Avg Total Chol normalized to pre-treatment ([2]; Group 3: 10 mg/kg daily oral gavage atorvastatin, 2.5 mg/kg AD05488 on day 23, Day 43): 0.331
- Avg Total Chol normalized to pre-treatment ([2]; Group 3: 10 mg/kg daily oral gavage atorvastatin, 2.5 mg/kg AD05488 on day 23, Day 50): 0.322
- Avg Total Chol normalized to pre-treatment ([2]; Group 4: 20 mg/kg* daily oral gavage atorvastatin (40 mg/kg first 11 days), 2.5 mg/kg AD05488 on day 23, Day 8 (pre-RNAi agent injection)): 0.682
- Avg Total Chol normalized to pre-treatment ([2]; Group 4: 20 mg/kg* daily oral gavage atorvastatin (40 mg/kg first 11 days), 2.5 mg/kg AD05488 on day 23, Day 15 (pre-RNAi agent injection)): 0.622
- Avg Total Chol normalized to pre-treatment ([2]; Group 4: 20 mg/kg* daily oral gavage atorvastatin (40 mg/kg first 11 days), 2.5 mg/kg AD05488 on day 23, Day 22 (pre-RNAi agent injection)): 0.857
- Avg Total Chol normalized to pre-treatment ([2]; Group 4: 20 mg/kg* daily oral gavage atorvastatin (40 mg/kg first 11 days), 2.5 mg/kg AD05488 on day 23, Day 29): 0.448
- Avg Total Chol normalized to pre-treatment ([2]; Group 4: 20 mg/kg* daily oral gavage atorvastatin (40 mg/kg first 11 days), 2.5 mg/kg AD05488 on day 23, Day 36): 0.295
- Avg Total Chol normalized to pre-treatment ([2]; Group 4: 20 mg/kg* daily oral gavage atorvastatin (40 mg/kg first 11 days), 2.5 mg/kg AD05488 on day 23, Day 43): 0.293
- Avg Total Chol normalized to pre-treatment ([2]; Group 4: 20 mg/kg* daily oral gavage atorvastatin (40 mg/kg first 11 days), 2.5 mg/kg AD05488 on day 23, Day 50): 0.310
- total reductions in total cholesterol ([2]; co-administration of atorvastatin and RNAi agent (Groups 3 and 4), LDLR KO mice on high fat diet): ~ 70%
